Test results published in patent US10576102B2, “KOC1-derived peptide and vaccine including same” (ONCOTHERAPY SCIENCE, INC., priority 2014, dated 2020).
Entries after “also recorded” stand apart in the source; their conditions may differ.

Legend:
Type in all cases: cell-based, human
[1] = tested on: peptide-pulsed C1R-A11; experiment: In vitro CTL induction, IFN-gamma ELISPOT assay (HLA-A*1101); settings: CTLs induced with peptide-pulsed DCs from HLA-A*1101-positive volunteers; day 21; vs peptide-pulsed C1R-A11, compared with unpulsed control
Experimental: (§1) C1R (C1R-A11) that stably expresses HLA-A*1101 was used as a stimulator cell. A cDNA encoding the open-reading frame of HLA-A*1101 was amplified by PCR and cloned into an expression vector. C1R cells were transfected with the expression vector, and then selected using G418 (Invitrogen) for two weeks. The G418-selected cells were seeded into wells containing G418-added culture medium in a 96-well plate, and further cultured for 30 days. The exogenous HLA-A*1101 expression in C1R cells was verified by flow cytometric analysis.
(§2) Monocyte-derived dendritic cells (DCs) were used as the antigen-presenting cell to induce a cytotoxic T lymphocyte (CTL) response against peptides presented on human leukocyte antigens (HLAs). As described in the other sections, DCs were generated in vitro (Nakahara S et al., Cancer Res 2003, 63(14): 4112-8). Specifically, peripheral-blood mononuclear cells isolated from healthy volunteers (HLA-A*1101-positive) with the Ficoll-Paque plus solution (Pharmacia) were separated by attaching to plastic tissue culture dishes (Becton Dickinson) and concentrated as a monocyte fraction. The monocyte-concentrated population was cultured in the presence of 1000 IU/ml granulocyte macrophage colony-stimulating factor (R&D System) and 1000 IU/ml interleukin(IL)-4 (R&D System) in an AIM-V medium (Invitrogen) containing 2% heat-inactivated autologous serum (AS). After seven days of culturing, the cytokine-induced DCs were pulsed with 20 micro-g/ml each of the synthesized peptides in an AIM-V medium at 37 degrees C. for three hours in the presence of 3 micro-g/ml beta 2-microglobulin. The generated cells appeared to express on their cell surface DC-associated molecules such as CD80, CD83, CD86 and HLA class II (data not shown). Next, these peptide-pulsed DCs were inactivated, by X-ray irradiation (20 Gy), and mixed in a 1:20 ratio with autologous CD8^+ T cells obtained by positive selection using the CD8 Positive Isolation Kit (Dynal). These culture products were seeded in a 48-well plate (Corning). Each well was made to contain 1.5×10^4 peptide-pulsed DCs, 3×10^5 CD8^+ T cells and 10 ng/ml IL-7 (R&D System) in 0.5 ml of the AIM-V/2% AS medium. Three days later, these culture products were added with a final concentration of 20 IU/ml IL-2 (CHIRON). On day 7 and day 14, T cells were further stimulated with peptide-pulsed autologous DCs. The DCs were prepared every time by the same method as above. On day 21, after the third peptide stimulation, CTLs were examined against the peptide-pulsed C1R-A11 by a human interferon (IFN)-gamma enzyme-linked immunospot (ELISPOT) assay (Tanaka H et al., Br J Cancer 2001, 84(1): 94-9; Umano Y et al., Br J Cancer 2001, 84(8): 1052-7; Uchida N et al., Clin Cancer Res 2004, 10(24): 8577-86; Suda T et al., Cancer Sci 2006, 97(5): 411-9; Watanabe T et al., Cancer Sci 2005, 96(8): 498-506).
(§3) Specifically, peptide-pulsed C1R-A11 (1×10^4 cells/well) was prepared as the stimulator cell. The induced CTLs, i.e., CTL lines and CTL clones, were used as the responder cell. The IFN-gamma ELISPOT assay and IFN-gamma ELISA were performed according to the manufacturer's manual.

[2] = tested on: peptide-pulsed C1R-A03; experiment: In vitro CTL induction, IFN-gamma ELISPOT assay (HLA-A*0301); settings: CTLs induced with peptide-pulsed DCs from HLA-A*0301-positive volunteers; day 21; vs peptide-pulsed C1R-A03, compared with unpulsed control; listed as KOC1-A03-10-414
Experimental: as §1, with “(C1R-A03)” for “(C1R-A11)”, “HLA-A*0301” for “HLA-A*1101”
as §2, with “(HLA-A*0301-positive)” for “(HLA-A*1101-positive)”, “inactivated” for “inactivated,”, “On day 21, after the third peptide stimulation, CTLs were examined against the peptide-pulsed C1R-A11 by a human interferon (IFN)-gamma enzyme-linked immunospot (ELISPOT) assay (Tanaka H et al., Br J Cancer 2001, 84(1): 94-9; Umano Y et al., Br J Cancer 2001, 84(8): 1052-7; Uchida N et al., Clin Cancer Res 2004, 10(24): 8577-86; Suda T et al., Cancer Sci 2006, 97(5): 411-9; Watanabe T et al., Cancer Sci 2005, 96(8): 498-506).” left out

[3] = tested on: peptide-pulsed C1R-A11; experiment: IFN-gamma ELISA of CTL lines and CTL clones (HLA-A*1101)
Experimental: CTLs were propagated in culture using methods similar to those disclosed by Riddell et al. (Walter E A et al., N Engl J Med 1995, 333(16): 1038-44; Riddell S R et al., Nat Med 1996, 2(2): 216-23). The CTLs were co-cultured in a total of 25 ml AIM-V medium containing 5% AS (AIM-V/5% AS) and 40 ng/ml anti-CD3 antibody with two types of Mitomycin C-treated human B lymphoblastoid cell lines at 5×10^6 cells/flask. One day after beginning of the culturing, 120 IU/ml IL-2 was added to the culture. On days 5, 8 and 11, a fresh AIM-V/5% AS medium containing 30 IU/ml IL-2 was added to the culture (Tanaka H et al., Br J Cancer 2001, 84(1): 94-9; Umano Y et al., Br J Cancer 2001, 84(8): 1052-7; Uchida N et al., Clin Cancer Res 2004, 10(24): 8577-86; Suda T et al., Cancer Sci 2006, 97(5): 411-9; Watanabe T et al., Cancer Sci 2005, 96(8): 498-506).
Dilution of CTLs was carried out to make 0.3, 1 and 3 cells/well in 96 round-bottomed microtiter plates (Nalge Nunc International). The CTLs were co-cultured with two types of Mitomycin C-treated human B lymphoblastoid cell lines at 1×10^4 cells/well in a total of 150 micro-1/well AIM-V/5% AS medium with 30 ng/ml anti-CD3 antibody and 125 IU/ml IL-2. Ten days later, IL-2 was added to the medium at 50 micro-1/well to reach a final concentration of 125 IU/ml. On day 14, the CTL activity was tested, and the CTL clones were propagated using the same method as described above (Uchida N et al., Clin Cancer Res 2004, 10(24): 8577-86; Suda T et al., Cancer Sci 2006, 97(5): 411-9; Watanabe T et al., Cancer Sci 2005, 96(8): 498-506).
as §3

ALSVGAIIGK (a peptide derived from KOC1) [SEQ ID NO: 28]
peptide-specific CTL activity (IFN-gamma production), ELISPOT [1]: potent IFN-gamma production | peptide-specific CTL activity (IFN-gamma production), ELISPOT [2]: no specific IFN-gamma production; also recorded: specific IFN-gamma production was not observed

LSVGAIIGK (a peptide derived from KOC1) [SEQ ID NO: 5]
peptide-specific CTL activity (IFN-gamma production), ELISPOT [1]: potent IFN-gamma production | IFN-gamma production of CTL clones, ELISA ([3]; CTL clones by limiting dilution, peptide-pulsed C1R-A11, listed as KOC1-A11-9-415): Potent IFN-gamma production | IFN-gamma production of CTL lines, ELISA ([3]; CTL lines, target cells pulsed with the peptide vs not pulsed, C1R-A11): potent IFN-gamma production
